{
  "source": "paper PMC9215129",
  "about": "“An acetyltransferase controls the metabolic flux in rubromycin polyketide biosynthesis by direct modulation of redox tailoring enzymes” (Chemical Science, 2022)",
  "key": {"[1]": {"biological_target": "T1, GrhO6 (Streptomyces sp. JP95, UniProt Q8KSX5, K425M)", "T1 construct": "recombinant, purified; group A FAD monooxygenase; acetylated at K5 by HyalJ in some assays", "T1 sequence (Q8KSX5 entry or part of it K425M)": "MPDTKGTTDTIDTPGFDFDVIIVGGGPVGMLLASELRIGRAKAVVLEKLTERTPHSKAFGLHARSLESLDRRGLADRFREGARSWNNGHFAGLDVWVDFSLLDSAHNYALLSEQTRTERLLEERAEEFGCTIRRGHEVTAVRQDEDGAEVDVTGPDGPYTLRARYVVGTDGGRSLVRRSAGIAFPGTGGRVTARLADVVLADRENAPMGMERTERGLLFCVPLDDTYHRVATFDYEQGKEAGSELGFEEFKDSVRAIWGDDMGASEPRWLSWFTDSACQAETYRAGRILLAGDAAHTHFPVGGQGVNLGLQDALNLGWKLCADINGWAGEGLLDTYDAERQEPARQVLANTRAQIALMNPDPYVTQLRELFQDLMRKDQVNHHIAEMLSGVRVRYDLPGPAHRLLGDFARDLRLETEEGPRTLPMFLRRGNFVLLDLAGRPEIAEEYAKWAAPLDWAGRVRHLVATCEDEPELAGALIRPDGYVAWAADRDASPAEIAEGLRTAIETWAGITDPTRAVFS", "assay": "HPLC assay, 5a/5b formation", "type": "biochemical", "settings": "with HyalJ; activity similar to wild type; substrate not named explicitly for the variant"}, "[2]": {"biological_target": "T2, GrhO10 (Streptomyces sp. JP95, UniProt Q8KSW1)", "T2 construct": "recombinant from E. coli, Ni-NTA purified (His-tag)", "T2 sequence (Q8KSW1 1-249)": "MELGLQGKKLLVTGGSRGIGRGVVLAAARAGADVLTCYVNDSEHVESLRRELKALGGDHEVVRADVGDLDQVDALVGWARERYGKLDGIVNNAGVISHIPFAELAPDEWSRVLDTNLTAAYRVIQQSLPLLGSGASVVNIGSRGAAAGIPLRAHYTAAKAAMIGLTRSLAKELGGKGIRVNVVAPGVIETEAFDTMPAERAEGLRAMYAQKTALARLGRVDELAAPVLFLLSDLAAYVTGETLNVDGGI", "assay": "HPLC, UPLC-HRMS/MS of product […]", "type": "biochemical", "settings": "4a/4b generated in situ by cascade (GrhO5, GrhO1, NADPH); redox form not resolved; low turnover"}, "[3]": {"biological_target": "T3, GrhO6 (Streptomyces sp. JP95, UniProt Q8KSX5, K57M)", "T3 construct": "recombinant, purified; group A FAD monooxygenase; acetylated at K5 by HyalJ in some assays", "T3 sequence (Q8KSX5 entry or part of it K57M)": "as the sequence (Q8KSX5 entry or part of it K425M) above, with K57M, M425K counted along it", "assay": "HPLC assay, 5a/5b formation", "type": "biochemical", "settings": "with HyalJ; activity similar to wild type; substrate not named explicitly for the variant"}, "[4]": {"biological_target": "T4, GrhO6 (Streptomyces sp. JP95, UniProt Q8KSX5)", "T4 construct": "recombinant, purified; group A FAD monooxygenase; acetylated at K5 by HyalJ in some assays", "T4 sequence (Q8KSX5 1-520)": "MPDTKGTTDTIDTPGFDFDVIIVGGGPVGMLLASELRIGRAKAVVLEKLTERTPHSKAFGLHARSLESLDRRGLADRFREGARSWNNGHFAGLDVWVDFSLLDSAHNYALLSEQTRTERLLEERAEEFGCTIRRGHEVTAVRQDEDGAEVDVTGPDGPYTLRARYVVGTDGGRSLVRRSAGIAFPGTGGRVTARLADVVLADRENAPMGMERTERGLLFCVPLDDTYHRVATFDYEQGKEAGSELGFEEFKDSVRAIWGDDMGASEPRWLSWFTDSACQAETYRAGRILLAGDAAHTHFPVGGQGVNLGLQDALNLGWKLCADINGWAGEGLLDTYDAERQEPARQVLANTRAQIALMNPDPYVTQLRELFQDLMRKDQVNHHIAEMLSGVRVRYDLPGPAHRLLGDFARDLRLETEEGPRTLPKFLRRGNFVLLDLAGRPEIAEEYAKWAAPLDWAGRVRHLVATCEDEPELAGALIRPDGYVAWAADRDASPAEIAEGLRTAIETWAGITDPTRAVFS", "assay": "HPLC time course in cascade", "type": "biochemical", "settings": "NADPH, GrhO5, GrhO1, with HyalJ; 4a generated in situ from 3b"}, "[5]": {"biological_target": "T4, GrhO6", "assay": "turnover before digest and UPLC-HRMS", "type": "biochemical", "settings": "with AcCoA and HyalJ"}, "[6]": {"biological_target": "T5, HyalO10 (Streptomyces hyaluromycini, UniProt Z9NP16K308)", "T5 construct": "heterologously produced and purified; hyaluromycin gene cluster, homologue of GrhO10", "T5 sequence (Z9NP16K308 1-249)": "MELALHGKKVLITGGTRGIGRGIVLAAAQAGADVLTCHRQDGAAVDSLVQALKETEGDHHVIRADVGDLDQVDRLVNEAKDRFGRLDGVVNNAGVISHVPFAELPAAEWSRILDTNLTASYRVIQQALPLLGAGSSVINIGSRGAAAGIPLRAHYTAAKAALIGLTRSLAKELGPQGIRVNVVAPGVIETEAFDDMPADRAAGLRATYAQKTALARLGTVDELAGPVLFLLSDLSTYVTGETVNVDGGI", "assay": "HPLC coupled cascade assay, 6a/6b formation", "type": "biochemical", "settings": "5a/5b generated in situ (GrhO5, GrhO1, GrhO6, HyalJ, NADPH); redox form not resolved"}, "[7]": {"biological_target": "T2, GrhO10", "assay": "HPLC time course of 6b formation", "type": "biochemical", "settings": "isolated 5b"}, "[8]": {"biological_target": "T6, HyalJ (Streptomyces hyaluromycini, UniProt Z9LXF2D8B5)", "T6 construct": "recombinant from E. coli, N-terminal GB1 solubility tag; GNAT, homologue of GrhJ", "T6 sequence (Z9LXF2D8B5 1-325)": "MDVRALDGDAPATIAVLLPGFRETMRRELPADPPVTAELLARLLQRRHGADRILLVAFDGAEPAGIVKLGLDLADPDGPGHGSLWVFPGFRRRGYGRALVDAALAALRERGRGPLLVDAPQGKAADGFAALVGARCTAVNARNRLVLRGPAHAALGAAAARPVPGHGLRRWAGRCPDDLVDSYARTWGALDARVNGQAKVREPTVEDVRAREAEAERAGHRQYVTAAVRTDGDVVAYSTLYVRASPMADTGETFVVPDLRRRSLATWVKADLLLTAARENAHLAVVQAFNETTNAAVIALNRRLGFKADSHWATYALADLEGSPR", "assay": "co-purification from E. coli, UPLC-HRMS of released ligand", "type": "binding", "settings": "acyl donor"}, "[9]": {"biological_target": "T4, GrhO6", "assay": "HPLC enzyme assay", "type": "biochemical", "settings": "inhibitor of turnover of 4a(b); 8 produced in situ, its structure only inferred from MS"}, "[10]": {"settings": "equal effect to AcCoA with apo HyalJ"}},
  "data": [
    {"smiles": "COc1cc(O)c2c(O)c3c(c(O)c2c1O)C(=O)OC1(CCc2cc4cc(C)oc(=O)c4c(O)c2O1)C3=O", "note": "(centres unmarked) [4a, dihydrolenticulone]", "values": [
      {"measurement": "HPLC assay, 5a/5b formation", "setting": "[1]", "result": "both were able to mediate the generation of 5a/5b in the presence of HyalJ"},
      {"measurement": "HPLC, UPLC-HRMS/MS of product 8", "setting": "[2]", "result": "ketoreductases are also capable of catalyzing keto reduction of 4a/4b"},
      {"measurement": "HPLC assay, 5a/5b formation", "setting": "[3]", "result": "both were able to mediate the generation of 5a/5b in the presence of HyalJ"},
      {"measurement": "HPLC time course in cascade", "setting": "[4]", "result": "Compound 4a is then further converted into 5a/5b"}
    ]},
    {"smiles": "COC1=CC(=O)c2c(O)c3c(c(O)c2C1=O)C(=O)OC1(CCc2cc4cc(C)oc(=O)c4c(O)c2O1)C3=O", "note": "(centres unmarked) [4b, lenticulone]", "values": [
      {"measurement": "turnover before digest and UPLC-HRMS", "setting": "[5]", "result": "GrhO6 after turnover of 4b in the presence of AcCoA and HyalJ"}
    ]},
    {"smiles": "COc1cc(O)c2c(O)c3c(c(O)c2c1O)OC1(CCc2cc4cc(C)oc(=O)c4c(O)c2O1)C3=O", "note": "(centres unmarked) [5a, dihydro-7,8-dideoxy-6-oxo-griseorhodin C]", "values": [
      {"measurement": "HPLC coupled cascade assay, 6a/6b formation", "setting": "[6]", "result": "When GrhO10 was substituted for HyalO10 in the enzymatic assays, 6a/6b was formed"}
    ]},
    {"smiles": "COC1=CC(=O)c2c(O)c3c(c(O)c2C1=O)OC1(CCc2cc4cc(C)oc(=O)c4c(O)c2O1)C3=O", "note": "(centres unmarked) [5b, 7,8-dideoxy-6-oxo-griseorhodin C]", "values": [
      {"measurement": "HPLC time course of 6b formation", "setting": "[7]", "result": "the enzymatic formation of 6b was clearly observed in the presence of GrhO10"}
    ]},
    {"smiles": "CC(=O)SCCNC(=O)CCNC(=O)[C@H](O)C(C)(C)COP(=O)(O)OP(=O)(O)OC[C@H]1O[C@@H](n2cnc3c(N)ncnc32)[C@H](O)[C@@H]1OP(=O)(O)O", "note": "[acetyl-CoA]", "values": [
      {"measurement": "co-purification from E. coli, UPLC-HRMS of released ligand", "setting": "[8]; acetylates GrhO6 at K5, restores activity of apo HyalJ", "result": "which clearly confirmed the presence of AcCoA"}
    ]},
    {"smiles": "COc1cc(O)c2c(O)c3c(c(O)c2c1O)C(=O)OC1(CCc2cc4cc(C)oc(=O)c4c(O)c2O1)C3O", "note": "(centres unmarked) [compound 8, 8]", "values": [
      {"measurement": "HPLC enzyme assay", "setting": "[9]", "result": "GrhO6 showed strongly decreased activity on 4a(b) even in the presence of only small amounts"}
    ]},
    {"smiles": "CC(C(=O)O)C(=O)SCCNC(=O)CCNC(=O)[C@H](O)C(C)(C)COP(=O)(O)OP(=O)(O)OC[C@H]1O[C@@H](n2cnc3c(N)ncnc32)[C@H](O)[C@@H]1OP(=O)(O)O", "note": "(some centres unmarked) [methylmalonyl-CoA]", "values": [
      {"measurement": "co-purification from E. coli, UPLC-HRMS of released ligand", "setting": "[8]; [10]", "result": "also with almost identical amounts of propionyl-CoA and methylmalonyl-CoA"}
    ]},
    {"smiles": "CCC(=O)SCCNC(=O)CCNC(=O)[C@H](O)C(C)(C)COP(=O)(O)OP(=O)(O)OC[C@H]1O[C@@H](n2cnc3c(N)ncnc32)[C@H](O)[C@@H]1OP(=O)(O)O", "note": "[propionyl-CoA]", "values": [
      {"measurement": "co-purification from E. coli, UPLC-HRMS of released ligand", "setting": "[8]; [10]", "result": "also with almost identical amounts of propionyl-CoA and methylmalonyl-CoA"}
    ]}
  ]
}
